The target of the assay is Histone deacetylase 1 (Homo sapiens, UniProt Q13547). The experiment in a line: Inhibition of HDAC1 (unknown origin) by fluorescence based microplate reader assay.

Drawing on BindingDB's records for PubMed 37487305 (Zhengzhou University), this text covers IC50 for one compound.

Sequence of Histone deacetylase 1 (Q13547 whole entry): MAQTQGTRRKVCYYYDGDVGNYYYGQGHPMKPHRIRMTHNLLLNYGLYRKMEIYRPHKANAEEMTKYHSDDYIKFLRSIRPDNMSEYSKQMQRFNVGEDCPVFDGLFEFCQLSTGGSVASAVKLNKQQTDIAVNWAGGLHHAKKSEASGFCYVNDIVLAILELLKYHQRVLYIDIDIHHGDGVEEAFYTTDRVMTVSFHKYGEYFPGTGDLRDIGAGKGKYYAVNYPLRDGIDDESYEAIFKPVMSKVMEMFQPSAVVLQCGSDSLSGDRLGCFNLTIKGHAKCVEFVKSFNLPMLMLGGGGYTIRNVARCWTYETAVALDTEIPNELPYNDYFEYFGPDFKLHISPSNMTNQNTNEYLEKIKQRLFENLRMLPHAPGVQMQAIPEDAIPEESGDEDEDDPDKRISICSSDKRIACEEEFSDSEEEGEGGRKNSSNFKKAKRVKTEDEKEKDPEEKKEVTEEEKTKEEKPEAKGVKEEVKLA

`CN1c2ccccc2C(=O)N2[C@H](C(=O)Nc3ccc(C(=O)Nc4ccccc4N)cc3)Cc3c([nH]c4ccccc34)[C@@H]12`: half-maximal inhibition (IC50) was put at 0.16 µM.
